Results as given in PubChem BioAssay (NCI).
Where “and” joins values, the source holds several entries; their conditions need not be identical. Identical values can stand only once.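 Step 1: Grow cells in 96-well plates. Step 2: Expose to compound for 48 hours at 5 concentrations. Step 3: Interpolate endpoints linearly; if unreached, use highest concentration. GI50: concentration for 50% inhibition of growth. TGI: concentration producing complete growth inhibition.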

What was measured:
Assay in all cases: NCI tumour cell line growth inhibition, 48 h
DMS 273 small cell lung = test system: DMS 273 small cell lung
UO-31 renal = test system: UO-31 renal
SF-295 CNS = test system: SF-295 CNS
LXFL 529 NSCLC = test system: LXFL 529 NSCLC
ACHN renal = test system: ACHN renal
DU-145 prostate = test system: DU-145 prostate
SR leukemia = test system: SR leukemia
BT-549 breast = test system: BT-549 breast
CAKI-1 renal = test system: CAKI-1 renal
HOP-92 NSCLC = test system: HOP-92 NSCLC
MDA-MB-231 breast = test system: MDA-MB-231 breast
OVCAR-4 ovarian = test system: OVCAR-4 ovarian
UACC-62 melanoma = test system: UACC-62 melanoma
EKVX NSCLC = test system: EKVX NSCLC
NCI-H522 lung = test system: NCI-H522 lung
MDA-MB-435 = test system: MDA-MB-435
P388 leukemia = test system: P388 leukemia
MDA-N = test system: MDA-N
SN12K1 renal = test system: SN12K1 renal

| SMILES | TGI (DMS 273 small cell lung) | GI50 (UO-31 renal) | TGI (UO-31 renal) | TGI (SF-295 CNS) | GI50 (ACHN renal) [µM] | TGI (ACHN renal) | GI50 (DU-145 prostate) [µM] | TGI (DU-145 prostate) [µM] | GI50 (SR leukemia) [µM] | TGI (SR leukemia) [µM] | TGI (BT-549 breast) [µM] | GI50 (CAKI-1 renal) [µM] | TGI (CAKI-1 renal) [µM] | TGI (HOP-92 NSCLC) | GI50 (MDA-MB-231 breast) [µM] | TGI (MDA-MB-231 breast) | TGI (OVCAR-4 ovarian) | TGI (UACC-62 melanoma) | GI50 (EKVX NSCLC) [µM] | TGI (EKVX NSCLC) | other results |
| --- | --- | --- | --- | --- | --- | --- | --- | --- | --- | --- | --- | --- | --- | --- | --- | --- | --- | --- | --- | --- | --- |
| CCCCCCCCCCCC[C@@H](O)[C@H]1CC[C@H]([C@H](O)CCCC[C@H](O)CCCCC[C@@H](O)CC2=C[C@H](C)OC2=O)O1 | 5.55 µM | 1.3 µM | 5.11 µM and 7.51 µM | 5.31 µM and 8.02 µM | 2.74 | 6.53 µM and 14.9 µM | 7.93 | 21.3 | 1.11 | 3.87 | 24 | 5.39 | 10.5 | 6.23 µM and 9.94 µM | 2.86 | 7.56 µM and 10.6 µM | 10.6 µM | 5.14 µM and 6.06 µM | 2.17 | 6.88 µM and 12.5 µM | TGI (LXFL 529 NSCLC): 10.8 µM; TGI (NCI-H522 lung): 4.45 µM; GI50 (MDA-MB-435): 2.26 µM; TGI (MDA-MB-435): 5.43 µM and 12 µM; TGI (P388 leukemia): 3.76 µM; TGI (MDA-N): 7.63 µM and 15.4 µM |
| CCN(CC)CCOc1cccc2nc3c(cc12)Cn1c-3cc2c(c1=O)COC(=O)C2(O)CC (stereo not given) | 1.58 µM and 11.8 µM | 1.8 µM and 3.19 µM | 8.7 µM and 11.9 µM | 5.19 µM and 9.4 µM | 0.675 | > 100 µM | 0.423 | 3.77 | 0.169 | 0.716 | 17.2 | 0.889 | 13.8 | 22.5 µM and 18.3 µM | 19.8 | 46.4 µM | 25.9 µM and 29.1 µM | 0.955 µM and 1.56 µM | 7.37 | > 40 µM | GI50 (DMS 273 small cell lung): 0.086 µM and 0.33 µM; GI50 (SF-295 CNS): 0.261 µM and 0.691 µM; GI50 (SN12K1 renal): 1.03 µM and 1.18 µM; TGI (SN12K1 renal): 11.4 µM and 14.1 µM; GI50 (BT-549 breast): 2.99 µM; GI50 (HOP-92 NSCLC): 5.42 µM and 4.83 µM; GI50 (OVCAR-4 ovarian): 11.2 µM and 8.77 µM; GI50 (UACC-62 melanoma): 0.147 µM and 0.273 µM; GI50 (NCI-H522 lung): 7.54 µM and 1.36 µM; TGI (NCI-H522 lung): 23.1 µM and 14.5 µM; GI50 (MDA-MB-435): 12.2 µM; TGI (MDA-MB-435): 28.2 µM; GI50 (MDA-N): 13 µM; TGI (MDA-N): 35.1 µM |
